From EP4548976A1, “ANTIVIRAL COMPOUNDS AND COMPOSITIONS THEREFROM” (Consejo Superior De Investigaciones Científicas, priority 2023, dated 2025)

Experiments:
[1] = tested on: SARS-CoV-2 stock strain NL/2020; assay: Antiviral activity in A549-ACE2 cells using viral antigen quantitation (SARS-CoV-2 N protein immunofluorescence); type: cell-based; conditions: Severe acute respiratory syndrome coronavirus 2, MOI 0.005, 48 h; for EC50: concentration reducing SARS-CoV-2 infection efficiency by 50% vs vehicle; for EC90: concentration reducing SARS-CoV-2 infection efficiency by 90% vs vehicle
[2] = in vitro; conditions: human

| SMILES | EC50 [1] [µM] | EC90 [1] [µM] | CC50 [2] [µM] |
| --- | --- | --- | --- |
| COC(=O)c1cc(-c2ccc3[nH]ccc3c2)ccc1NC(C#N)[C@H](Cc1c[nH]c2ccccc12)NC(=O)OC(C)(C)C (mixture of isomers) [Example 9, Methyl 2-(((1RS,2S)-2-((tert-butoxycarbonyl)amino)-1-cyano-3-(1H-indol-3-yl)propyl)amino)-5-(1H-indol-5-yl)benzoate] | < 0.4 | 5 | 50 |
| COC(=O)c1cc(-c2ccnc(N3CCOCC3)c2)ccc1NC(C#N)[C@H](Cc1c[nH]c2ccccc12)NC(=O)OC(C)(C)C (mixture of isomers) [Example 7, Methyl 2-(((1RS,2S)-2-((tert-butoxycarbonyl)amino)-1-cyano-3-(1H-indol-3-yl)propyl)amino)-5-(2-morpholinopyridin-4-yl)benzoate] | 1.1 | 6 | > 50 |
| COC(=O)c1cc(-c2ccc(F)c(-c3nn[nH]n3)c2)ccc1NC(C#N)[C@H](Cc1c[nH]c2ccccc12)NC(=O)OC(C)(C)C (mixture of isomers) [Example 21, Methyl 4-(((1RS,2S)-2-((tert-butoxycarbonyl)amino)-1-cyano-3-(1H-indol-3-yl)propyl)amino)-4'-fluoro-3'-(2H-tetrazol-5-yl)-[1,1'-biphenyl]-3-carboxylate] | 6 | > 50 | > 50 |
| COC(=O)c1cc(-c2ccc(N3CCOCC3)cc2)ccc1NC(C#N)[C@H](Cc1c[nH]c2ccc(Br)cc12)NC(=O)OC(C)(C)C (mixture of isomers) [Example 1, Methyl 4-(((1RS,2S)-3-(5-bromo-1H-indol-3-yl)-2-((tert-butoxycarbonyl)amino)-1-cyanopropyl)amino)-4'-morpholino-[1,1'-biphenyl]-3-carboxylate] | 0.8 | 6 | > 50 |
| COC(=O)c1cc(-c2ccc3[nH]ccc3c2)ccc1NC(C#N)[C@@H](Cc1c[nH]c2ccccc12)NC(=O)OC(C)(C)C (mixture of isomers) [Example 27, Methyl 2-(((1RS,2R)-2-((tert-butoxycarbonyl)amino)-1-cyano-3-(1H-indol-3-yl)propyl)amino)-5-(1H-indol-5-yl)benzoate] | 7 | 9 | 35 |
| COC(=O)c1cc(-c2ccc(N3CCOCC3)cc2)ccc1NC(C#N)[C@H](Cc1c[nH]c2c(Br)cccc12)NC(=O)OC(C)(C)C (mixture of isomers) [Example 3, Methyl 4-(((1RS,2S)-3-(7-bromo-1H-indol-3-yl)-2-((tert-butoxycarbonyl)amino)-1-cyanopropyl)amino)-4'-morpholino-[1,1'-biphenyl]-3-carboxylate] | 3.5 | 8 | > 50 |
| CC(C)(C)OC(=O)N[C@@H](Cc1c[nH]c2ccccc12)C(C#N)Nc1ccccc1C(=O)N1CCCCCC1 (mixture of isomers) [Example 31, tert-Butyl ((1RS,2S)-1-((2-(azepane-1-carbonyl)phenyl)amino)-1-cyano-3-(1H-indol-3-yl)propan-2-yl)carbamate] | 8 | 39 | 36 |
| COC(=O)c1cc(-c2ccc3c(ccn3C(=O)OC(C)(C)C)c2)ccc1NC(C#N)[C@H](Cc1c[nH]c2ccccc12)NC(=O)OC(C)(C)C (mixture of isomers) [Example 19, tert-Butyl 5-(4-(((1RS,2S)-2-((tert-butoxycarbonyl)amino)-1-cyano-3-(1H-indol-3-yl)propyl)amino)-3-(methoxycarbonyl)phenyl)-1H-indole-1-carboxylate] | 6 | 31 | > 50 |
| COC(=O)c1cc(-c2ccnn2C2CCCCO2)ccc1NC(C#N)[C@H](Cc1c[nH]c2ccccc12)NC(=O)OC(C)(C)C (mixture of isomers) [Example 23, Methyl 2-(((1RS,2S)-2-((tert-butoxycarbonyl)amino)-1-cyano-3-(1H-indol-3-yl)propyl)amino)-5-(1-(tetrahydro-2H-pyran-2-yl)-1H-pyrazol-5-yl)benzoate] | 4 | 8 | 50 |
| COC(=O)c1cc(-c2cnn(Cc3ccccc3)c2)ccc1NC(C#N)[C@H](Cc1c[nH]c2ccccc12)NC(=O)OC(C)(C)C (mixture of isomers) [Example 17, Methyl 5-(1-benzyl-1H-pyrazol-4-yl)-2-(((1RS,2S)-2-((tert-butoxycarbonyl)amino)-1-cyano-3-(1H-indol-3-yl)propyl)amino)benzoate] | 1 | 2 | > 50 |
| COC(=O)c1cc(-c2ccc(N3CCOCC3)cc2)ccc1NC(C#N)[C@H](Cc1c[nH]c2cc(Br)ccc12)NC(=O)OC(C)(C)C (mixture of isomers) [Example 2, Methyl 4-(((1RS,2S)-3-(6-bromo-1H-indol-3-yl)-2-((tert-butoxycarbonyl)amino)-1-cyanopropyl)amino)-4'-morpholino-[1,1'-biphenyl]-3-carboxylate] | 1.6 | 6 | > 50 |
| COC(=O)c1cc(-c2ccc(N3CCOCC3)cc2)ccc1NC(C#N)[C@H](Cc1c[nH]c2ccc(-c3ccccc3)cc12)NC(=O)OC(C)(C)C (mixture of isomers) [Example 5, Methyl 4-(((1RS,2S)-2-((tert-butoxycarbonyl)amino)-1-cyano-3-(5-phenyl-1H-indol-3-yl)propyl)amino)-4'-morpholino-[1,1'-biphenyl]-3-carboxylate] | 4 | 13 | > 50 |
| COC(=O)c1cc(-c2ccc3[nH]cnc3c2)ccc1NC(C#N)[C@H](Cc1c[nH]c2ccccc12)NC(=O)OC(C)(C)C (mixture of isomers) [Example 15, Methyl 5-(1H-benzo[d]imidazol-5-yl)-2-(((1RS,2S)-2-((tert-butoxycarbonyl)amino)-1-cyano-3-(1H-indol-3-yl)propyl)amino)benzoate] | 1 | 4 | 50 |
| COC(=O)c1cc(-c2c[nH]c3ncccc23)ccc1NC(C#N)[C@H](Cc1c[nH]c2ccccc12)NC(=O)OC(C)(C)C (mixture of isomers) [Example 18, Methyl 2-(((1RS,2S)-2-((tert-butoxycarbonyl)amino)-1-cyano-3-(1H-indol-3-yl)propyl)amino)-5-(1H-pyrrolo[2,3-b]pyridin-3-yl)benzoate] | 6 | 9 | 10 |
| COC(=O)c1cc(C2=CCN(C(=O)OC(C)(C)C)CC2)ccc1NC(C#N)[C@H](Cc1c[nH]c2ccccc12)NC(=O)OC(C)(C)C (mixture of isomers) [Example 14, tert-Butyl 4-(4-(((1RS,2S)-2-((tert-butoxycarbonyl)amino)-1-cyano-3-(1H-indol-3-yl)propyl)amino)-3-(methoxycarbonyl)phenyl)-3,6-dihydropyridine-1(2H)-carboxylate] | 7 | 16 | > 50 |
| COC(=O)c1cc(-c2ccc3ocnc3c2)ccc1NC(C#N)[C@H](Cc1c[nH]c2ccccc12)NC(=O)OC(C)(C)C (mixture of isomers) [Example 24, Methyl 5-(benzo[d]oxazol-5-yl)-2-(((1RS,2S)-2-((tert-butoxycarbonyl)amino)-1-cyano-3-(1H-indol-3-yl)propyl)amino)benzoate] | 6 | 9 | > 50 |
| COC(=O)c1cc(-c2ccc(C(=O)N3CCOCC3)cc2)ccc1NC(C#N)[C@H](Cc1c[nH]c2ccccc12)NC(=O)OC(C)(C)C (mixture of isomers) [Example 8, Methyl 4-(((1RS,2S)-2-((tert-butoxycarbonyl)amino)-1-cyano-3-(1H-indol-3-yl)propyl)amino)-4'-(morpholine-4-carbonyl)-[1,1'-biphenyl]-3-carboxylate] | 0.9 | 2 | > 50 |
| COC(=O)c1cc(-c2ccc(CN3CCOCC3)cc2)ccc1NC(C#N)[C@H](Cc1c[nH]c2ccccc12)NC(=O)OC(C)(C)C (mixture of isomers) [Example 10, Methyl 4-(((1RS,2S)-2-((tert-butoxycarbonyl)amino)-1-cyano-3-(1H-indol-3-yl)propyl)amino)-4'-(morpholinomethyl)-[1,1'-biphenyl]-3-carboxylate] | 0.9 | 2 | > 50 |
| COC(=O)c1cc(-c2cc3ccccc3s2)ccc1NC(C#N)[C@H](Cc1c[nH]c2ccccc12)NC(=O)OC(C)(C)C (mixture of isomers) [Example 13, Methyl 5-(benzo[b]thiophen-2-yl)-2-(((1RS,2S)-2-((tert-butoxycarbonyl)amino)-1-cyano-3-(1H-indol-3-yl)propyl)amino)benzoate] | 1.85 | 5 | 13 |
| COC(=O)c1cc(-c2ccc3[nH]ncc3c2)ccc1NC(C#N)[C@H](Cc1c[nH]c2ccccc12)NC(=O)OC(C)(C)C (mixture of isomers) [Example 16, Methyl 2-(((1RS,2S)-2-((tert-butoxycarbonyl)amino)-1-cyano-3-(1H-indol-3-yl)propyl)amino)-5-(1H-indazol-5-yl)benzoate] | 6 | 9 | 10 |
| COC(=O)c1cc(C2=CCCCC2)ccc1NC(C#N)[C@H](Cc1c[nH]c2ccccc12)NC(=O)OC(C)(C)C (mixture of isomers) [Example 22, Methyl 4-(((1RS,2S)-2-((tert-butoxycarbonyl)amino)-1-cyano-3-(1H-indol-3-yl)propyl)amino)-2',3',4',5'-tetrahydro-[1,1'-biphenyl]-3-carboxylate] | 6 | 9 | 32 |
